{
  "source": "patent US20080275111A1",
  "about": "“Novel Use of Lignan Compounds” (priority 2005, published 2008)",
  "key": {"[1]": {"system": "cell line HT-22", "assay": "Cytotoxicity in cell line HT-22", "assay_type": "cell-based", "conditions": "HT-22, 1, 5 and 10 μM, 24 hours, stated for 10 μM", "description": "In order to examine the cytotoxicity effect of macelignan itself, a cell line HT-22 derived from the hippocampus was treated with macelignan at concentrations (1, 5 and 10 μM) for 24 hours."}, "[2]": {"system": "iNOS", "assay": "iNOS expression in LPS-activated microglia (Western blotting)", "assay_type": "cell-based, mouse", "conditions": "1 μg/ml LPS, compound 2.5 and 10 μM, 16 or 24 hours", "from_the_text": "In Example <6-2>, it was observed that the NO production induced by LPS in the tissue-cultured microglia of mouse was inhibited by the lignan compound of the present invention. NO is produced by iNOS enzyme of which expression is induced by activation of microglia. Therefore, the correlation between the reduction of NO production and inhibition of iNOS expression was examined. Additionally, a change in the amount of a protein COX-2 participating in the production of other inflammation-mediating materials was examined. For Western blotting analysis, tissue-cultured microglia was cultured in a 60 mm cell culture dish up to a concentration of 7.5×10^5 cells/ml. After 1 day of cultivation, the activation of microglia was induced by 1 μg/ml of LPS (Sigma) treatment. Simultaneously, the microglia was also treated with 2.5 and 10 μM of the lignan compound of the present invention together with LPS, and incubated for 16 or 24 hours. The incubated cell was washed with cold PBS 2 times, and then dissolved in a cold lysis buffer (1% SDS, 1 mM Na3VO4, 10 mM NaF, 10 mM Tris-Cl, pH 7.4 containing 1× protease inhibitors cocktail). […] Then, the amount of proteins was quantified according to BCA method. […]\nNaCl containing 0.1% Tween 20) 3 times. […] Again, the membrane was then washed with TBS-T solution 3 times, and each band on the membrane was analyzed using ECL system (Sigma)."}, "[3]": {"system": "TNF-α", "assay": "TNF-α production in LPS-activated microglia (ELISA)", "assay_type": "cell-based, rat", "conditions": "1 μg/ml LPS, compound 2.5 and 10 μM, 24 hours", "from_the_text": "When the microglia is activated by LPS, it synthesizes and secretes various pro-inflammatory cytokines such as IL-1, IL-6 and TNF-α (Chen, S. Neurobiol. Aging, 17:781-787, 1996). Therefore, in order to examine the anti-inflammatory effect of the lignan compound of the present invention, the effect of the lignan compound of the present invention on the production of IL-6 and TNF-α in the activated microglia. First, only the neocortex was isolated from the brain of 1 day-old rat. Then, a microglia-astroglia mixture was prepared according to a method known in the art (Kim, H. Y. et al., J. Immunol., 171:6072-6079, 2003). […] Then, the amount of IL-6 and TNF-α secreted into the cell cultured medium was measured with the solid-phase ELISA system (RPN2742 for IL-6, RPN2744 for TNF-α, Amersham Bioscience). For this analysis, 50 μl of the supernatant of the cultured medium of microglia and 50 μl of the standard of each material (purely isolated and quantified IL-6 or TNF-α) were added into a 96-well plate coated with an antibody specific to mouse IL-6 and TNF-α. […] Then, 100 μl of a stop solution (Amersham Bioscience) was added into each well to stop the reaction, and the absorbance of the solution in each well was measured with a microreader at 450 nm. […]"}, "[4]": {"system": "tissue-cultured hippocampus neuron", "assay": "Reactive oxygen species production induced by BSO in tissue-cultured hippocampus neuron (DCFDA)", "assay_type": "cell-based, mouse", "conditions": "1 mM BSO for 8 hours, compound 0.1, 0.5 and 1 μM; control not treated with BSO", "description": "Then, the antioxidant effect of the lignan compound of the present invention in the tissue-cultured hippocampus neuron was analyzed. For this analysis, the hippocampus of a fetus extracted from a pregnant (18 days) mouse was cultured in neurobasal medium (Gibco BRL) containing B-27 supplements and 2 mM L-glutamine for 10 days. To induce oxidative stress to the tissue-cultured hippocampus neuron, it was treated with 1 mM BSO for 8 hours. Here, the tissue-cultured hippocampus neuron was also treated with each concentration (0.1, 0.5 and 1 μM) of the lignan compound of the present invention simultaneously to analyze the reactive oxygen species-inhibitory effect of the lignan compound of the present invention. The control was not treated with BSO. Then, the amount of reactive oxygen species produced was measured by a method known in the art (Jung, Y. S., Biochem Biophys Res Commun., 320(3):789-94, 2004) using 10 μM DCFDA(molecular probes)."}, "[5]": {"system": "lipid peroxidation of the brain tissue", "assay": "Lipid peroxidation of brain homogenate supernatant induced by hydrogen peroxide", "assay_type": "biochemical, rat", "description": "After anesthesia of a rat, the tissue of the rat was perfused with 0.9% physiological saline solution containing EDTA. The brain was then extracted from the rat and washed with ice-cold 20 mM Tris-HCl (pH 7.4). After removing water, the weight of the brain was measured. The brain was mixed with 0.1 g/ml of ice-cold 20 mM Tris-HCl (pH 7.4) and homogenized. The homogenized brain was centrifuged and the supernatant was collected. 40 μl of the supernatant was mixed with 40 mM of hydrogen peroxide to induce lipid peroxidation. Simultaneously, different concentration (0.5, 1, 5 and 10 μM) of the lignan compounds isolated from the Example 1 were added into the supernatant, respectively. After incubation of the supernatant in water (37° C.) for 30-60 minutes, 162.5 μl of R1 solution (lipid peroxidation assay kit, Cat. No. 437634, Calbiochem) and 37.5 μl of R2 solution (lipid peroxidation assay kit, Cat. No. 437634, Calbiochem) were added into the cultured supernatant, and the supernatant was further incubated at 45° C. for 40 minutes. Then, the absorbance of the incubated medium was measured at 586 nm to quantify the lipid peroxidation."}},
  "data": [
    {"smiles": "COc1cc(C[C@H](C)[C@H](C)Cc2ccc3c(c2)OCO3)ccc1O", "note": "[macelignan, (8R,8′S)-7-(3,4-methylenedioxyphenyl)-7′-(4-hydroxy-3-methoxyphenyl)-8,8′-dimethylbutane]", "values": [
      {"measurement": "cytotoxicity", "setting": "[1]", "value": "did not induce cytotoxicity"},
      {"measurement": "cytotoxicity", "setting": "[1]; listed as lignan compound of the present invention", "value": "did not show cytotoxicity"},
      {"measurement": "expression of iNOS induced by LPS", "setting": "[2]", "value": "inhibited in a concentration dependent manner"},
      {"measurement": "production of TNF-α induced by LPS", "setting": "[3]", "value": "dose-dependently inhibited"},
      {"measurement": "production of reactive oxygen species in the tissue-cultured hippocampus neuron", "setting": "[4]", "value": "in the similar level as the control"},
      {"measurement": "lipid peroxidation induced by hydrogen peroxide at 10 μM", "setting": "[5]; 10 μM compound, compared with control without hydrogen peroxide", "value": "in the similar level as the control"},
      {"measurement": "lipid peroxidation induced by hydrogen peroxide", "setting": "[5]; rat brain supernatant, 40 mM hydrogen peroxide, compound 0.5, 1, 5 and 10 μM", "value": "dose-dependently inhibited"}
    ]}
  ]
}
